Results published in ChEMBL document CHEMBL3044633, “Synthesis and Insecticidal Activity of 3, 5-Dimethylbenzoyl Moiety Modified Analogues of N-tert-Butyl-N-(4-ethylbenzoyl)-3, 5-dimethylbenzohydrazide” (2002).

How the values were obtained:
Assay type in all cases: functional
Conditions in all cases: foliar, 120 h
[1] = tested on: Spodoptera litura; experiment: Insecticidal activity against the Spodoptera litura larvae in compound treated cabbage leaves assessed as mortality at 200 ppm measured after 5 days by leaf dipping method
[2] = tested on: Spodoptera litura; experiment: Insecticidal activity against the Spodoptera litura larvae in compound treated cabbage leaves assessed as mortality at 12.5 ppm measured after 5 days by leaf dipping method
[3] = tested on: Spodoptera litura; experiment: Insecticidal activity against the Spodoptera litura larvae in compound treated cabbage leaves assessed as mortality at 50 ppm measured after 5 days by leaf dipping method
[4] = tested on: Spodoptera litura; experiment: Insecticidal activity against the Spodoptera litura larvae in compound treated cabbage leaves assessed as mortality at 3.1 ppm measured after 5 days by leaf dipping method

Compound | mortality at 200 ppm [1] [%] | mortality at 12.5 ppm [2] [%] | mortality at 50 ppm [3] [%] | mortality at 3.1 ppm [4] [%]
CCc1ccc(C(=O)NN(C(=O)c2cc(C)cc(CO[Si](C)(C)C(C)(C)C)c2)C(C)(C)C)cc1 | 0 |  |  | 
CCc1ccc(C(=O)NN(C(=O)c2cc(C)cc(C=O)c2)C(C)(C)C)cc1 | 0 |  |  | 
CCc1ccc(C(=O)NN(C(=O)c2ccc3ncoc3c2)C(C)(C)C)cc1 | 1 |  |  | 
C=Cc1cc(C)cc(C(=O)N(NC(=O)c2ccc(CC)cc2)C(C)(C)C)c1 | 10 | 1 | 7 | 
CCc1ccc(C(=O)NN(C(=O)c2cc(C)cc(COC)c2)C(C)(C)C)cc1 | 9 |  | 5 | 
CCc1ccc(C(=O)NNC(=O)C2CC(C)CC(C)C2)cc1 (centres undefined) | 1 |  | 0 | 
CCc1ccc(C(=O)NN(C(=O)c2cc(C)cc(C(F)F)c2)C(C)(C)C)cc1 | 10 | 8 | 10 | 
CCc1ccc(C(=O)NN(C(=O)c2cc(C)cc(CO)c2)C(C)(C)C)cc1 | 0 |  |  | 
CCc1ccc(C(=O)NN(C(=O)c2cc(C)cc(CF)c2)C(C)(C)C)cc1 | 10 | 5 | 10 | 
CCc1ccc(C(=O)NN(C(=O)c2ccc3ocnc3c2)C(C)(C)C)cc1 | 5 |  |  | 
CCc1ccc(C(=O)NN(C(=O)C2C=C(C)CC(C)=C2)C(C)(C)C)cc1 | 10 | 4 | 10 | 
CCc1ccc(C(=O)NN(C(=O)c2cc(C)cc(C)c2)C(C)(C)C)cc1 [TEBUFENOZIDE] | 10 | 10 | 10 | 3
CCCCOCc1cc(C)cc(C(=O)N(NC(=O)c2ccc(CC)cc2)C(C)(C)C)c1 | 0 |  |  | 
CCc1ccc(C(=O)NN(C(=O)c2cc(C)cc(CCl)c2)C(C)(C)C)cc1 | 7 |  | 1 | 
CCc1ccc(C(=O)NN(C(=O)c2ccc3c(c2)OCCO3)C(C)(C)C)cc1 | 0 |  |  | 
